What all share (assay type): biochemical
Assay [1] has as its target nNOS (Rat) (Rattus norvegicus, UniProt P29476). The assay is described as follows: nNOS (Rat) enzyme assay. The conditions noted are these: values in parentheses; for IC50: rat nNOS, read-out: nNOS IC50 (rodent data in parentheses). The method, then: nNOS (Rat), eNOS (Rat) and iNOS (Mouse) Enzyme Assay Recombinant rat or mouse NO synthases (iNOS, eNOS, nNOS) were expressed in Sf9 cells (Sigma), 36 mg prot/ml (Bradford). […] Inhibition of NOS was determined by measuring the formation of L-[3H] citrulline from L-[3H] arginine. […] Stop buffer:100 mM Hepes, pH 5.5, 3 mM EDTA, 3 mM EGTA.

Assay [2] addresses eNOS (Rat) (Rattus norvegicus, UniProt Q62600). The assay is described as follows: eNOS (Rat) enzyme assay. The settings on record: values in parentheses, read-out: eNOS IC50 (rodent data in parentheses).
The target in assay [3] is Nitric oxide synthase (neuronal, human recombinant) nNOS (Homo sapiens, UniProt P29475). Kind of assay: Human nNOS enzyme assay ([3H]L-arginine to [3H]L-citrulline).
Sequence of Nitric oxide synthase (neuronal, human recombinant) nNOS (P29475 whole entry): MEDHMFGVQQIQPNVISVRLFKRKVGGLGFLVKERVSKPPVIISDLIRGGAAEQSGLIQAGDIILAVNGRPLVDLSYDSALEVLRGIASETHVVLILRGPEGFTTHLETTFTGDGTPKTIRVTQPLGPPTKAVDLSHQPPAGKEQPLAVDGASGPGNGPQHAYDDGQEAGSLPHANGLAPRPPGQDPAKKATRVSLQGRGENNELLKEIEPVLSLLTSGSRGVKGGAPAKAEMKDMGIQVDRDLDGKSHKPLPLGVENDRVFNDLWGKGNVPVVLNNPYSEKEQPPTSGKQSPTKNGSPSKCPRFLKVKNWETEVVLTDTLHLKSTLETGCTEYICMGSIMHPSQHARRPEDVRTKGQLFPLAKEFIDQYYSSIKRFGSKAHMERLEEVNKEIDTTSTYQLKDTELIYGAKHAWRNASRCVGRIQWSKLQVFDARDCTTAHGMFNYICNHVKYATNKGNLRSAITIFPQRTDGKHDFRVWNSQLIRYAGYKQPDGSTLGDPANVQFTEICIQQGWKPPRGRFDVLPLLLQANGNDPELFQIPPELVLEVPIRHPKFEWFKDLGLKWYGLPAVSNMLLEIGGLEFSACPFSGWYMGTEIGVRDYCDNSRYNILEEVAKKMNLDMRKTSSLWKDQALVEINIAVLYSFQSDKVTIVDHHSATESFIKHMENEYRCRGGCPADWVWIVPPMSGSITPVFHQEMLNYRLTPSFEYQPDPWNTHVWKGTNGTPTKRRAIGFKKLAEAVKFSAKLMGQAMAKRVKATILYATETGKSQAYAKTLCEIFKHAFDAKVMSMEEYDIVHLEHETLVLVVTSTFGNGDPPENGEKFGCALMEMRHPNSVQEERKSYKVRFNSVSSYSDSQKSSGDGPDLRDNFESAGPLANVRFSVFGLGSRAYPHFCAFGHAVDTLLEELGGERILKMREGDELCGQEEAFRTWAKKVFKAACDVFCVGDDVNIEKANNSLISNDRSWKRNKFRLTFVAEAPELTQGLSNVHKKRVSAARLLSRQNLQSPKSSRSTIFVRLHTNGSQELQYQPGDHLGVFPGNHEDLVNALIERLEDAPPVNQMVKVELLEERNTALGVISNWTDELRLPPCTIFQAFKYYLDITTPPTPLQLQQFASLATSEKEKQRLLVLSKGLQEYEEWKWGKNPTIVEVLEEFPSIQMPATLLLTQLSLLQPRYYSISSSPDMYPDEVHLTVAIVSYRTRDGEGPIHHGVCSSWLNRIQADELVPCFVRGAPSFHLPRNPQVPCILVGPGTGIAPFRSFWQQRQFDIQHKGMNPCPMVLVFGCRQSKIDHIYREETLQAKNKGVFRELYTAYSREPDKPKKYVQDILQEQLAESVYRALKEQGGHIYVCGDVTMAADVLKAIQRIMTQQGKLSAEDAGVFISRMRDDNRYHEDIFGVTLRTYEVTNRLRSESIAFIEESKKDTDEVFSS
Assay [4] addresses iNOS (Mouse) (Mus musculus, UniProt P29477). The assay is described as follows: iNOS (Mouse) enzyme assay. The conditions noted are these: values in parentheses, read-out: iNOS IC50 (rodent data in parentheses). The method, then:
nNOS (Rat), eNOS (Rat) and iNOS (Mouse) Enzyme Assay Recombinant rat or mouse NO synthases (iNOS, eNOS, nNOS) were expressed in Sf9 cells (Sigma), 36 mg prot/ml (Bradford). […] Inhibition of NOS was determined by measuring the formation of L-[3H] citrulline from L-[3H] arginine. […] Stop buffer:100 mM Hepes, pH 5.5, 3 mM EDTA, 3 mM EGTA. Enzyme and inhibitor were pre-incubated for 35 min in the presence of NADPH before addition of arginine to initiate the reaction.

Assay [5] deals with Nitric oxide synthase (endothelial, human recombinant) eNOS (Homo sapiens, UniProt P29474). Kind of assay: Human eNOS enzyme assay ([3H]L-arginine to [3H]L-citrulline).
Sequence of Nitric oxide synthase (endothelial, human recombinant) eNOS (P29474 2-1203): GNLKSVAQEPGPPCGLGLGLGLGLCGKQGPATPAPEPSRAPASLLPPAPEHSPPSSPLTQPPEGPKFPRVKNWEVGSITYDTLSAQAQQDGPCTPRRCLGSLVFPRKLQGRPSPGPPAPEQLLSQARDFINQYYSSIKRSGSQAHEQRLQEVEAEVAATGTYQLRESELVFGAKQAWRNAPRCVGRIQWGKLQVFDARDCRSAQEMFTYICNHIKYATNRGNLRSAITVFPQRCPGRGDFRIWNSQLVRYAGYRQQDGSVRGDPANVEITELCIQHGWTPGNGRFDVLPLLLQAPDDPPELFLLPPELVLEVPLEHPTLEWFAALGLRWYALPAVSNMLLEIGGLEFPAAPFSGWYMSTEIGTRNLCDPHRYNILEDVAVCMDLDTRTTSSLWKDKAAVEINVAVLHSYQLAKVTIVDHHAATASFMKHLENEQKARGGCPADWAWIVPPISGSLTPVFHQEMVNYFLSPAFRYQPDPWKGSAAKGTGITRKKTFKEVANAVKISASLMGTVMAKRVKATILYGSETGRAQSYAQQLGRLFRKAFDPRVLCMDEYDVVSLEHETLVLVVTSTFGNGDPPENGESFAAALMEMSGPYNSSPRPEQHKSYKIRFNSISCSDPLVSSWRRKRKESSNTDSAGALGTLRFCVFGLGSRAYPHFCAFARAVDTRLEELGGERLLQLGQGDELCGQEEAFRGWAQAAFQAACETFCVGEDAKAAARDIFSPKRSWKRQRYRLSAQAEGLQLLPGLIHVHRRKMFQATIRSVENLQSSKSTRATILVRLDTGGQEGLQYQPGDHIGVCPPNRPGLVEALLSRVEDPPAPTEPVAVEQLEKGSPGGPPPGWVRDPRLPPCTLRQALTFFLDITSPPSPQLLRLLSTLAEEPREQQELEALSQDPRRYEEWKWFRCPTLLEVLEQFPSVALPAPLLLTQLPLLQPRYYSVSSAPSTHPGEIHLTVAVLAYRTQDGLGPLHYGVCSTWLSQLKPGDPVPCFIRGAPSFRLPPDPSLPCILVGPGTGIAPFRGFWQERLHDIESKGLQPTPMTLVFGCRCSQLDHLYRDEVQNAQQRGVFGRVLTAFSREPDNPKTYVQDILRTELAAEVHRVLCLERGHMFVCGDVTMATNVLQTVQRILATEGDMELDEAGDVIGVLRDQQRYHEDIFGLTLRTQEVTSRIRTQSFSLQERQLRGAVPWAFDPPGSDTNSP
In assay [6] the target is Recombinant human inducible NOS (iNOS) (Homo sapiens, UniProt P35228). Kind of assay: Human iNOS enzyme assay, radiometric.
Sequence of Recombinant human inducible NOS (iNOS) (P35228 whole entry): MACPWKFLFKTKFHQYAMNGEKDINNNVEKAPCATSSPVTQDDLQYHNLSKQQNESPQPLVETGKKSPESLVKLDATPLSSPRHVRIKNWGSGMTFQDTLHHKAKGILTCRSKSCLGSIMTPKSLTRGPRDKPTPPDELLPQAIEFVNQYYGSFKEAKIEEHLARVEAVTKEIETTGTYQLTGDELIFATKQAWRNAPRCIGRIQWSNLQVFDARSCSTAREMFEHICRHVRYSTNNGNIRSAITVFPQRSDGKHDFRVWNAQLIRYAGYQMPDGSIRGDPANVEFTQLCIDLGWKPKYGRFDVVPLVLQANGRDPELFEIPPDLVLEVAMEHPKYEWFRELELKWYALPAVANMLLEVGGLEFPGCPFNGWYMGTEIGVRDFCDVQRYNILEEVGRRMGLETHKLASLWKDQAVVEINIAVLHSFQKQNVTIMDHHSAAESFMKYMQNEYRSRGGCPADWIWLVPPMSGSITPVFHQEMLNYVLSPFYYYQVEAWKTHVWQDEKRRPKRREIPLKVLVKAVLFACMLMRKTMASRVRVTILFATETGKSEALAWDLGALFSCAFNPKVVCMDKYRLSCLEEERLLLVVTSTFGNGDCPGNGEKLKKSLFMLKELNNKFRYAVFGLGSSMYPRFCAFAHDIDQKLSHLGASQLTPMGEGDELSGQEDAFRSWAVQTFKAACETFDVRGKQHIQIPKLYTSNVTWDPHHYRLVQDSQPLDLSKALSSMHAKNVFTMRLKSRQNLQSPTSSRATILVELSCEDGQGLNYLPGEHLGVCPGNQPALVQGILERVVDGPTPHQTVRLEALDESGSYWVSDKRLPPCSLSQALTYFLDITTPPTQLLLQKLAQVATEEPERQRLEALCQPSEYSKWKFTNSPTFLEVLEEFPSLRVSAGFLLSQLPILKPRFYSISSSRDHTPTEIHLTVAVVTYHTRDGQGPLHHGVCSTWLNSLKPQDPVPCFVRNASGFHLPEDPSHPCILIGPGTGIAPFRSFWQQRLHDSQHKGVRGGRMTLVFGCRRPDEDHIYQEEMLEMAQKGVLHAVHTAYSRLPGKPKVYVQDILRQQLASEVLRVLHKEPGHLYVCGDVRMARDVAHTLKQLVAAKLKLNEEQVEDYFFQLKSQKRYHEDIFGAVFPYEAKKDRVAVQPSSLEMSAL
Setting [7] is: human recombinant nNOS, values without parentheses, read-out: hnNOS IC50.
The mark [8] stands for this setting: human recombinant eNOS, values without parentheses, read-out: heNOS IC50.
Setting [9] is: human enzymes, ratio of eNOS IC50 to nNOS IC50.
Where [10] appears, read: human recombinant iNOS, values without parentheses, read-out: hiNOS IC50.

Counter-ions that a name gives are not always drawn. Like-named read-outs stand apart in the source and are kept apart here.

Sequence of eNOS (Rat) (Q62600 2-1202): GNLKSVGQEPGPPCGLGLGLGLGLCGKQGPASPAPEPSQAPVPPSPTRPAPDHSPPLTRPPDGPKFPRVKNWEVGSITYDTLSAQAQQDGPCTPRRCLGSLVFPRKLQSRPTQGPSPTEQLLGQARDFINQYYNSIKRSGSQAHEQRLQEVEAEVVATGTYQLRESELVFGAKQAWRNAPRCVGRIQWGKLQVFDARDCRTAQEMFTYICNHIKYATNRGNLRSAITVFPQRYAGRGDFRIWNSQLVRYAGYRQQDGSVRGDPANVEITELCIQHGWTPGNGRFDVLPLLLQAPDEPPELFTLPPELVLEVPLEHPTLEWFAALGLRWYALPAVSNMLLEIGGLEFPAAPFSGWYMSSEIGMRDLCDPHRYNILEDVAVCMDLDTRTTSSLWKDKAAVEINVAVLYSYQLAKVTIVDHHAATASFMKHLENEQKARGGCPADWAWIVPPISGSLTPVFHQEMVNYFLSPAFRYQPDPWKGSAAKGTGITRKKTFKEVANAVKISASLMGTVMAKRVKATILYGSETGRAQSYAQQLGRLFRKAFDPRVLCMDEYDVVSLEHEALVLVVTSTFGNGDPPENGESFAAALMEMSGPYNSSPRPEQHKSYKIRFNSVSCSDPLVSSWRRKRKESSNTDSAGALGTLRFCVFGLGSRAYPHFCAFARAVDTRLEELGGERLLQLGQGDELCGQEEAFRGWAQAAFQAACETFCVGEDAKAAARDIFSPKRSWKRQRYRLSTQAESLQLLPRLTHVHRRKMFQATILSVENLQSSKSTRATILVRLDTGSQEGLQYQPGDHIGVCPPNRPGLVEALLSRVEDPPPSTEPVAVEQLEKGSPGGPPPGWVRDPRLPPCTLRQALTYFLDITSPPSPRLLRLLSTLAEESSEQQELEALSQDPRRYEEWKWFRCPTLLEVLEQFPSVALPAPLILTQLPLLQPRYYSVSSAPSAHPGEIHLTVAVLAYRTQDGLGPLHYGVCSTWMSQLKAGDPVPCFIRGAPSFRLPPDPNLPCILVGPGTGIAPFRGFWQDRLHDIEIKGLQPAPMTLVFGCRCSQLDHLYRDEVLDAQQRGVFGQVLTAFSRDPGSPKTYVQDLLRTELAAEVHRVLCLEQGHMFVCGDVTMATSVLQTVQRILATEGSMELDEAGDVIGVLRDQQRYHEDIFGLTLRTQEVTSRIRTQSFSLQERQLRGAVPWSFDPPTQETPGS

In the case of `N=C(Nc1ccc2c(c1)CCCN2C1CCNC1)c1cccs1` (single isomer, unassigned; (-)) [Example 65, (−)-N-(1-(pyrrolidin-3-yl)-1,2,3,4-tetrahydroquinolin-6-yl)thiophene-2-carboximidamide dihydrochloride], the IC50 (usually the concentration at which inhibition is half-maximal) in assay [1] amounted to 0.28 µM; in assay [2], 9.08 µM; in assay [3] (setting [7]), 0.31 µM; in assay [4] it was 7.5 µM; in assay [5] (setting [8]), 22.5 µM.
For the compound `CN1CCC(N2CCCc3cc(NC(=N)c4cccs4)ccc32)C1` (single isomer, unassigned) [Example 56, N-(1-(1-Methylpyrrolidin-3-yl)-1,2,3,4-tetrahydroquinolin-6-yl)thiophene-2-carboximidamide], the IC50 in assay [1] turned out to be 0.087 µM; in assay [2], 4.5 µM; in assay [3] (setting [7]) it was 0.09 µM; in assay [6] (setting [10]), 34 µM; in assay [5] (setting [8]) it was 18.3 µM. In assay [3] (setting [9]), the “Selectivity eNOS/nNOS” value was determined as 203.
In the case of `Cl.Cl.N=C(Nc1ccc2c(c1)CCCN2CCN1CCCC1)c1cccs1` [Example 12, N-(1-(2-(pyrrolidin-1-yl)ethyl)-1,2,3,4-tetrahydroquinolin-6-yl)thiophene-2-carboximidamide dihydrochloride], the IC50 was 1.9 µM in assay [1]; greater than 100 µM in assay [2]; 0.31 µM in assay [3] (setting [7]); greater than 100 µM in assay [4]; 36 µM in assay [5] (setting [8]). Besides, in assay [3] (setting [9]), the “Selectivity eNOS/nNOS” value came out at 115.
In the case of `CCNCCN1CCCc2cc(NC(=N)c3cccs3)ccc21` [Example 60, N-(1-(2-(Ethylamino)ethyl)-1,2,3,4-tetrahydroquinolin-6-yl)thiophene-2-carboximidamide], the concentration for half-maximal inhibition (IC50) was 0.44 µM in assay [1]; greater than 100 µM in assay [2]; 0.39 µM in assay [3] (setting [7]); 16.6 µM in assay [6] (setting [10]); 52.8 µM in assay [5] (setting [8]). In assay [1] (rodent enzymes), the “Selectivity eNOS/nNOS (rodent data in parentheses)” value is listed as “(>227)”. For the same compound, the “Selectivity eNOS/nNOS” value in assay [3] (setting [9]) worked out at 135.
As to `N=C(Nc1ccc2c(c1)CCCCN2C1CCNCC1)c1cccs1` [Example 58, N-(1-(piperidin-4-yl)-2,3,4,5-tetrahydro-1H-benzo[b]azepin-7-yl)thiophene-2-carboximidamide], the IC50 was 2.3 µM in assay [3] (setting [7]), greater than 100 µM in assay [6] (setting [10]) and 66.3 µM in assay [5] (read-out: heNOS IC50).
Take `CC(CN1C(=O)CCc2cc(NC(=N)c3cccs3)ccc21)N1CCCC1` (centres unmarked) [Example 15, N-(2-oxo-1-(2-(pyrrolidin-1-yl)propyl)-1,2,3,4-tetrahydroquinolin-6-yl)thiophene-2-carboximidamide]: the “Selectivity eNOS/nNOS” value in assay [3] (setting [9]) is 9.1. The half-maximal inhibitory concentration (IC50) is 5.8 µM in assay [3] (setting [7]), greater than 100 µM in assay [6] (setting [10]) and 52.6 µM in assay [5] (setting [8]).
Take `N=C(Nc1ccc2c(c1)CCCC(=O)N2CCN1CCCCC1)c1cccs1` [Example 38, N-(2-Oxo-1-(2-(piperidin-1-yl)ethyl)-2,3,4,5-tetrahydro-1H-benzo[b]azepin-7-yl)thiophene-2-carboximidamide]: the “Selectivity eNOS/nNOS” value in assay [3] (setting [9]) is listed as 14.8. Besides, the half-maximal inhibitory concentration (IC50) in assay [3] (setting [7]) turned out to be 10 µM; in assay [6] (setting [10]), 8.21 µM; in assay [5] (setting [8]), 148 µM.
For `CN1CCC(N2CCCc3cc(NC(=N)c4cccs4)ccc32)CC1` [Example 18, N-(1-(1-methylpiperidin-4-yl)-1,2,3,4-tetrahydroquinolin-6-yl)thiophene-2-carboximidamide], the “Selectivity eNOS/nNOS” value in assay [3] turned out to be 5.7. The concentration for half-maximal inhibition (IC50) in assay [3] (hnNOS IC50) is 8.8 µM; in assay [6] (hiNOS IC50), greater than 100 µM; in assay [5] (heNOS IC50), 50 µM.
`CNCCN1C(=O)CCc2cc(NC(=N)c3cccs3)ccc21` [Example 34, N-(1-(2-(Methylamino)ethyl)-2-oxo-1,2,3,4-tetrahydroquinolin-6-yl)thiophene-2-carboximidamide]: the “Selectivity eNOS/nNOS” value in assay [3] (setting [9]) is given as 115. Besides, the figures for the IC50 in assay [3] (setting [7]), in assay [6] (setting [10]) and in assay [5] (setting [8]) were 0.39 µM, 1.28 µM and 45.1 µM, respectively.
As for `CC1C(=O)N(C2CCN(C)CC2)c2ccc(NC(=N)c3cccs3)cc21` (centres unmarked) [Example 17, N-(3-Methyl-1-(1-methylpiperidin-4-yl)-2-oxoindolin-5-yl)thiophene-2-carboximidamide], the “Selectivity eNOS/nNOS” value in assay [3] is reported as 31. Further, the IC50 in assay [3] (hnNOS IC50) was determined as 4.9 µM; in assay [6] (hiNOS IC50) it was 57 µM; in assay [5] (heNOS IC50), 155 µM.
`CN1CCCC1CCN1CCCc2cc(NC(=N)c3cccs3)cc(F)c21.Cl.Cl` (centres unmarked) [Example 55, N-(8-Fluoro-1-(2-(1-methylpyrrolidin-2-yl)ethyl)-1,2,3,4-tetrahydroquinolin-6-yl)thiophene-2-carboximidamide dihydrochloride]: in assay [3] (setting [9]), the “Selectivity eNOS/nNOS” value turned out to be 181. The results for the IC50 in assay [3] (setting [7]), in assay [6] (setting [10]) and in assay [5] (setting [8]) were 0.08 µM, greater than 100 µM and 14.5 µM, respectively.
On to `CN(C)CCN1CCCc2cc(NC(=N)c3cccs3)cc(F)c21` [Example 42, N-(1-(2-(Dimethylamino)ethyl)-8-fluoro-1,2,3,4-tetrahydroquinolin-6-yl)thiophene-2-carboximidamide], for which the half-inhibitory concentration (IC50) in assay [3] (setting [7]) was 0.09 µM; in assay [6] (setting [10]) it was greater than 100 µM; in assay [5] (read-out: heNOS IC50) it was 24.3 µM.
In the case of `N=C(Nc1ccc2c(c1)CCC(=O)N2CCN1CCCC1)c1cccs1` [Example 6, N-(2-oxo-1-(2-(pyrrolidin-1-yl)ethyl)-1,2,3,4-tetrahydroquinolin-6-yl)thiophene-2-carboximidamide], the IC50 in assay [3] (setting [7]) is 0.165 µM; in assay [6] (setting [10]) it was greater than 100 µM; in assay [5] (read-out: heNOS IC50), 29.8 µM.
On to `N=C(Nc1ccc2c(c1)CCCCN2C1CCNC1)c1cccs1` (centres unmarked) [Example 48, N-(1-(Pyrrolidin-3-yl)-2,3,4,5-tetrahydro-1H-benzo[b]azepin-7-yl)thiophene-2-carboximidamide], for which the IC50 came out at 0.33 µM in assay [3] (read-out: hnNOS IC50), 0.61 µM in assay [6] (setting [10]) and 75 µM in assay [5] (read-out: heNOS IC50).
As for `CN1CCC(N2CCCCc3cc(NC(=N)c4cccs4)ccc32)CC1` [Example 39, N-(1-(1-Methylpiperidin-4-yl)-2,3,4,5-tetrahydro-1H-benzo[b]azepin-7-yl)thiophene-2-carboximidamide], the results for the 50% inhibitory concentration (IC50) in assay [3] (read-out: hnNOS IC50), in assay [6] (read-out: hiNOS IC50) and in assay [5] (read-out: heNOS IC50) were 2.96 µM, 1.34 µM and 20 µM, respectively.
For the compound `N=C(Nc1ccc2c(c1)CCCN2C1CCNC1)c1cccs1` (single isomer, unassigned; (+)) [Example 66, (+)-N-(1-(pyrrolidin-3-yl)-1,2,3,4-tetrahydroquinolin-6-yl)thiophene-2-carboximidamide dihydrochloride], the IC50 was 0.1 µM in assay [1], 0.01 µM in assay [3] (setting [7]), 2.9 µM in assay [4] and 14.2 µM in assay [5] (setting [8]).
Take `CN1CCC(N2CCCc3cc(NC(=N)c4cccs4)ccc32)C1` (single isomer, unassigned) [Example 57, N-(1-(1-Methylpyrrolidin-3-yl)-1,2,3,4-tetrahydroquinolin-6-yl)thiophene-2-carboximidamide]: the IC50 in assay [1] is 0.504 µM; in assay [2] it was greater than 100 µM; in assay [3] (setting [7]), 0.32 µM; in assay [6] (setting [10]), 40.4 µM; in assay [5] (setting [8]), 199 µM. Further, the “Selectivity eNOS/nNOS” value in assay [3] (setting [9]) turned out to be 622.
Take `N=C(Nc1ccc2c(c1)C(C1CCNC1)C(=O)N2)c1cccs1` (centres unmarked) [Example 43, N-(2-Oxo-3-(pyrrolidin-3-yl)indolin-5-yl)thiophene-2-carboximidamide]: the “Selectivity eNOS/nNOS” value in assay [3] (setting [9]) turned out to be 152. Moreover, the values for the IC50 in assay [3] (setting [7]), in assay [6] (setting [10]) and in assay [5] (setting [8]) were 0.18 µM, 7.03 µM and 27.4 µM, respectively.
`CN1CCC(N2C(=O)CCc3cc(NC(=N)c4cccs4)ccc32)CC1` [Example 22, N-(1-(1-Methylpiperidin-4-yl)-2-oxo-1,2,3,4-tetrahydroquinolin-6-yl)thiophene-2-carboximidamide]: the “Selectivity eNOS/nNOS” value in assay [3] is 87.8. Besides, the IC50 in assay [3] (hnNOS IC50) is 1.72 µM; in assay [6] (hiNOS IC50), greater than 100 µM; in assay [5] (heNOS IC50), 151 µM.
As to `CN(C)CCCN1CCCc2cc(NC(=N)c3cccs3)ccc21` [Example 59, N-(1-(3-(Dimethylamino)propyl)-1,2,3,4-tetrahydroquinolin-6-yl)thiophene-2-carboximidamide], the half-maximal inhibitory concentration (IC50) in assay [3] (setting [7]) was 0.27 µM; in assay [6] (setting [10]), 34.5 µM; in assay [5] (read-out: heNOS IC50), 22.4 µM.
Turning to `CN(CCO)CCN1CCCc2cc(NC(=N)c3cccs3)ccc21` [Example 62, N-(1-(2-((2-Hydroxyethyl)(methyl)amino)ethyl)-1,2,3,4-tetrahydroquinolin-6-yl)thiophene-2-carboximidamide], the IC50 worked out at 0.94 µM in assay [1], 0.13 µM in assay [3] (setting [7]), 7 µM in assay [4] and 63.9 µM in assay [5] (setting [8]). Also, the “Selectivity eNOS/nNOS” value in assay [3] (setting [9]) came to 492.

Values taken from patent US8173813B2, “Quinolone and tetrahydroquinolone and related compounds having NOS inhibitory activity” (NeurAxon, Inc., priority 2007, dated 2012).
